pEC50, pKi: −log10 of the molar value. Counter-ions that a name gives are not always drawn.
Tests used:
dopamine D-2 receptor = dopamine D-2 receptor (Rattus norvegicus, UniProt P61169); experiment: biochemical; assay type: binding; details: rat caudate, [125I]-p-aminophenylethyl spiroperidol; read-out: D-2 Ki
Protocol: Homogenized rat caudate was the source of the D-2 receptors. […] The molar affinity of the compound for the receptor binding site was calculated by the same method used for the D-1 receptor assay, assuming a competitive interaction between the compound and the radiolabeled ligand.

dopamine D-1 receptor [1] = details: for Intrinsic Activity (adenylate cyclase assay): dopamine = 100, goldfish retina or rat striatum; for pEC50: read-out: EC50 (agonist activity in adenylate cyclase assay), tissue from goldfish retina or rat striatum
Protocol: In order to determine agonist activity, cell-free tissue homogenates are incubated in an ionic buffer solution containing ATP and the compound being evaluated. The tissue was obtained from either goldfish retina or rat striatum.

dopamine D-1 receptor [2] = target: dopamine D-1 receptor (Rattus norvegicus, UniProt P18901); experiment: biochemical; details: D-1 Ki, rat caudate, [125I]SCH-23982
Chain of dopamine D-1 receptor (Rattus norvegicus, UniProt P18901) (P18901 whole entry): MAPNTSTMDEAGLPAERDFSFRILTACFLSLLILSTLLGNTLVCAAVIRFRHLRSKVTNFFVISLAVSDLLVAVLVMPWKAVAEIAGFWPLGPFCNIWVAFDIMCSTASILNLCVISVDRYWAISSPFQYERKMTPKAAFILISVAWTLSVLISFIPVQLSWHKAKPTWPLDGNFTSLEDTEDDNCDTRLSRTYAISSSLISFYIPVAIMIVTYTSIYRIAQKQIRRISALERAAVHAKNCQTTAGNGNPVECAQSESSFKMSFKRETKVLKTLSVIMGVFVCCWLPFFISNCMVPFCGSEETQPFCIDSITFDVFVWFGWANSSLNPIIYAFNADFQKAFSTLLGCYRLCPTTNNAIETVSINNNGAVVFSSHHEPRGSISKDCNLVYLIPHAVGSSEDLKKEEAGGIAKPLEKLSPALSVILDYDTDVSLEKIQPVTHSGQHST
Description: The compounds compete with the radiolabeled ligand for occupancy of the receptors and the molar potency of each compound was quantified.
The Ki values are inversely proportional to the affinity of the compound for the receptor.

Chain of dopamine D-2 receptor (P61169 whole entry): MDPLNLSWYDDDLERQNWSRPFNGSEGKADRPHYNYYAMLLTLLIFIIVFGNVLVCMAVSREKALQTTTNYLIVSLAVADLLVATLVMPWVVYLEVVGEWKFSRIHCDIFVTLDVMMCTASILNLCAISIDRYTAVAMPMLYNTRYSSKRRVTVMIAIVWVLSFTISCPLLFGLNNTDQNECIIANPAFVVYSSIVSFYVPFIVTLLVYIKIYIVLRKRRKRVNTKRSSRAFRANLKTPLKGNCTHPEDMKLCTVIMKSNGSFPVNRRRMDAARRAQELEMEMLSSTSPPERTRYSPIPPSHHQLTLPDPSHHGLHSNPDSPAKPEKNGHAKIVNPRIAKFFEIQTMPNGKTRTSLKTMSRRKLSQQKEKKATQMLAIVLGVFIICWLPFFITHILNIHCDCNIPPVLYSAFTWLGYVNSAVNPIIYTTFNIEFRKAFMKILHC

Row | SMILES | pKi (dopamine D-2 receptor) | Intrinsic Activity (adenylate cyclase assay) (dopamine D-1 receptor [1]) | pEC50 (dopamine D-1 receptor [1]) | pKi (dopamine D-1 receptor [2])
1 | CCCC[C@@H]1Cc2c(ccc(O)c2O)[C@H](CN)O1 (relative stereo) [Example 79] | 6.04 | 151 | 8.15 | 6.14
2 | CC(C)=CCCC(C)[C@@H]1Cc2c(ccc(O)c2O)[C@H](CN)O1 (some centres unmarked) [Example 74] | 5.70 | 105 | 6.08 | 7.00
3 | CCCC(=O)NC[C@@H]1Cc2c(ccc(O)c2O)[C@H](CN)O1 (relative stereo) [Example 169] | < 5.00 | 150 | 6.70 | 5.10
4 | NC[C@H]1O[C@@H](CNC(=O)c2cccnc2)Cc2c1ccc(O)c2O (relative stereo) [Example 170] | 6.85 | 151 | 6.89 | 6.24
5 | Oc1ccc2c(c1O)C[C@H](C1CCCCC1)O[C@@H]2CNC1CC1 (relative stereo) [Example 114] | 6.05 | 60 | 7.22 | 6.38
6 | NC[C@H]1O[C@@H](CO)Cc2c1ccc(O)c2O (relative stereo) [Example 155, [1,3-cis]1-Aminomethyl-3,4-dihydro-5,6-dihydroxy-3-hydroxymethyl-1H-2-benzopyran Hydrochloride] | 5.09 | 95 | 6.82 | 5.59
7 | NCC1OC2(CCOCC2)Cc2c1ccc(O)c2O (centres unmarked) [Example 95] | < 5.00 | 104 | 7.00 | 6.28
8 | COC(=O)Oc1ccc2c(c1OC(=O)OC)CC(c1ccccc1)C=C2CN (centres unmarked) [Example 23] | < 5.00 | 65 | 5.96 | 6.30
9 | NCC1=CC(c2cccc(O)c2)Cc2c1ccc(O)c2O (centres unmarked) [Example 38] | 4.52 | 91 | 7.48 | 6.92
10 | NCC1=CC(c2cccc3ccccc23)Cc2c1ccc(O)c2O (centres unmarked) [Example 41] | 5.60 | 81 | 5.74 | 6.15
11 | CNCC1OC2(CCOCC2)Cc2c1ccc(O)c2O (centres unmarked) [Example 143] | < 5.00 | 94 | 5.96 | 5.92
12 | NCC[C@H]1Cc2c(ccc(O)c2O)[C@@H](CN)O1 (relative stereo) [Example 159] | 5.43 | 129 | 6.82 | 5.51
13 | O=CO.Oc1ccc2c(c1O)CC(c1ccccc1)C1=C2CNC1 (centres unmarked) [Example 184, 6,7-Dihydroxy-4-phenyl-2,3,4,5-tetrahydro-1H-benz[e]isoindole Formic Acid Salt] | < 5.00 | 47 | 7.66 | 7.15
14 | COc1ccc(OC[C@H]2Cc3c(ccc(O)c3O)[C@@H](CN)O2)cc1 (relative stereo) [Example 53] | 6.19 | 67 | 7.64 | 6.60
15 | CC(C)(C)C(=O)NC[C@H]1Cc2c(ccc(O)c2O)[C@@H](CN)O1 (relative stereo) [Example 166] | 5.62 | 97 | 6.74 | 5.32
16 | NC[C@@H]1O[C@H](CCC2CCCCC2)Cc2c1ccc(O)c2O (relative stereo) [Example 91] | < 5.00 | 135 | 6.17 | 6.54

Row | SMILES | pKi (dopamine D-2 receptor) | Intrinsic Activity (adenylate cyclase assay) (dopamine D-1 receptor [1]) | pEC50 (dopamine D-1 receptor [1]) | pKi (dopamine D-1 receptor [2])
17 | NC[C@@H]1O[C@H](c2ccccc2)Cc2c1cc(Br)c(O)c2O (relative stereo) [Example 62] | 5.43 | 111 | 6.77 | 6.68
18 | NC[C@H]1O[C@@H](c2ccc(C(F)(F)F)cc2)Cc2c1ccc(O)c2O (relative stereo) [Example 98] | 5.72 | 108 | 7.74 | 6.66
19 | NC[C@H]1O[C@@H](CCO)Cc2c1ccc(O)c2O (relative stereo) [Example 160] | 5.77 | 136 | 6.85 | 5.89
20 | CNCC1OC2(CCCCCCC2)Cc2c1ccc(O)c2O (centres unmarked) [Example 142] | < 5.00 | 71 | 7.06 | 6.72
21 | Oc1ccc2c(c1O)C[C@@H](c1ccccc1)C[C@H]2[C@H]1CCCN1 (relative stereo) [Example 180, [1,3-cis]5,6-Dihydroxy-3-phenyl-1-(2'-pyrrolidinyl)-1,2,3,4-tetrahydronaphthalene Hydrobromide] | 5.33 | 71 | 7.10 | 5.96
22 | NC[C@@H]1O[C@H](Cc2ccccc2)Cc2c1ccc(O)c2O (relative stereo) [Example 60] | 5.66 | 93 | 7.43 | 6.28
23 | CNCC1OC2(CCCCCC2)Cc2c1ccc(O)c2O (centres unmarked) [Example 141] | 5.59 | 97 | 7.10 | 6.92
24 | COc1cccc([C@@H]2Cc3c(ccc(O)c3O)[C@H](CN)O2)c1 (relative stereo) [Example 82] | 6.09 | 107 | 8.15 | 7.96
25 | Oc1ccc2c(c1O)CC(CC1CCCC1)C1=C2CNCC1 (centres unmarked) [Example 209] | 5.55 | 25 |  | 6.31
26 | CCOC(=O)CC(=O)NC[C@@H]1Cc2c(ccc(O)c2O)[C@H](CN)O1 (relative stereo) [Example 92] | 5.27 | 69 | 6.22 | 5.82
27 | CC(C)(C)c1ccc(OC[C@H]2Cc3c(ccc(O)c3O)[C@@H](CN)O2)cc1 (relative stereo) [Example 57] | 6.14 | 56 | 7.52 | 5.96
28 | Cc1cc2c(c(O)c1O)C[C@@H](C1CCCCC1)O[C@H]2CN (relative stereo) [Example 177, [1,3-cis]1-Aminomethyl-3-cyclohexyl-3,4-dihydro-5,6-dihydroxy-7-methyl-1H-2-benzopyran Hydrochloride] | 5.18 | 62 | 6.77 | 6.89
29 | NC[C@@H]1O[C@H](COCc2ccccc2)Cc2c1ccc(O)c2O (relative stereo) [Example 75] | 5.34 | 60 | 6.54 | 6.32
30 | NC[C@@H]1O[C@H](CCc2ccccc2)Cc2c1ccc(O)c2O (relative stereo) [Example 61] | 5.89 | 76 | 8.22 | 6.54
31 | CN1CCC2=C(C1)c1ccc(O)c(O)c1CC21CCCCC1 [Example 212] | 6.15 | 43 | 6.32 | 6.20
32 | CN1CCC2=C(C1)c1ccc(O)c(O)c1CC2CC1CCCC1 (centres unmarked) [Example 245] | 6.74 |  |  | 6.46
